Here are results for 9 compounds from ChEMBL document CHEMBL1201862, “PubChem BioAssay data set” (2004).

The term Ki denotes the dissociation constant of the complex between target and ligand, obtained from inhibition or displacement. By CC50 is commonly meant the concentration that lowers cell viability or growth by half. A word on the IC50: it is the concentration at which inhibition is half-maximal. The term AC50 denotes the concentration at which the activity in the assay is half-maximal. One may read the EC50 as the concentration giving half of the maximal effect.

Active and inactive are the calls of the source.

Assay [1] deals with T1, fMet-Leu-Phe receptor (Homo sapiens, UniProt P21462).
T1 sequence (P21462 whole entry): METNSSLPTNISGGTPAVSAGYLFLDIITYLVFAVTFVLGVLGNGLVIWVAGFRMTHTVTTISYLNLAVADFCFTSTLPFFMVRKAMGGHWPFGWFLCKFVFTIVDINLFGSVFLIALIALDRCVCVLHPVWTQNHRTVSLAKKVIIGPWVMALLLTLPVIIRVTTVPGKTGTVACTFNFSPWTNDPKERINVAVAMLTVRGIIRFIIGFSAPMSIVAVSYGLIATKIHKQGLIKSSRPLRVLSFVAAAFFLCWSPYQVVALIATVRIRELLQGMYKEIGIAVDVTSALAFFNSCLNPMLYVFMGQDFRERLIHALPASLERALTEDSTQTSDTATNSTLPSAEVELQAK
The experiment in a line: formyl peptide receptor binders – dose response (AID 519). In kind it is functional.

Assay [2] in a line: viability loss in HeLa cells – cytotoxicity control for MgcRacGAP inhibitor project, dose response (AID 624300). Type of assay: functional.
In assay [3] the target is T2, Rac GTPase-activating protein 1 (Homo sapiens, UniProt Q9H0H5).
T2 sequence (Q9H0H5 whole entry): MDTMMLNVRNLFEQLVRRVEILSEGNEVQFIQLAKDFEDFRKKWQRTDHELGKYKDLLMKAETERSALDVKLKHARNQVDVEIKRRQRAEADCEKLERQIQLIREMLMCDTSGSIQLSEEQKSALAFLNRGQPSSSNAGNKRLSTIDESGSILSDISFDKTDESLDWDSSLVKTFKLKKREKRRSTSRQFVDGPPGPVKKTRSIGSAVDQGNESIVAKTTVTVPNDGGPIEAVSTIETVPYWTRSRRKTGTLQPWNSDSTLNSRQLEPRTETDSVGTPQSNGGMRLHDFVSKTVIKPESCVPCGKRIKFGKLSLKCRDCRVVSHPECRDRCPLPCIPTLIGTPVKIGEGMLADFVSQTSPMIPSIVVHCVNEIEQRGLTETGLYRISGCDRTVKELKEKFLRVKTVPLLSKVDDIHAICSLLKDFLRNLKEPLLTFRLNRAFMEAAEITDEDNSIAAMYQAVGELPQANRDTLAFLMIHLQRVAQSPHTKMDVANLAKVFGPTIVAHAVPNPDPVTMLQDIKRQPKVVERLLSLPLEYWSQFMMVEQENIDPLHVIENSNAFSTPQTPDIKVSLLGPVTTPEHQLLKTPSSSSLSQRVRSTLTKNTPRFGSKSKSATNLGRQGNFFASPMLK
The experiment in a line: blockers of MgcRacGAP-driven Rac1 GTP hydrolysis – biochemical, ADP Hunter fluorescence, primary and confirmatory, confirmation (AID 624330). In kind it is functional.

Assay [4] concerns the target Nonstructural protein 1 (Influenza A virus, UniProt Q194T2). Type of assay: functional, Influenza A virus (A/California/07/2009(H1N1)).
In assay [5] the test system is INS1. The experiment in a line: INS-1E survival protection against cytokine death – cell-based, luminescence, retest, dose response (AID 449756).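 Further: cell death triggered by IL-1 beta plus TNF-alpha plus IFN-gamma mixture; protective hits raise ATP signal compared with cytokine alone wells.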 In kind it is functional. Particulars: Rattus norvegicus.
Assay [6] can be described thus: cells. In kind it is functional, cell-based.
Assay [7] has as its target T3, Trace amine-associated receptor 1 (Homo sapiens, UniProt Q96RJ0).
T3 sequence (Q96RJ0 whole entry): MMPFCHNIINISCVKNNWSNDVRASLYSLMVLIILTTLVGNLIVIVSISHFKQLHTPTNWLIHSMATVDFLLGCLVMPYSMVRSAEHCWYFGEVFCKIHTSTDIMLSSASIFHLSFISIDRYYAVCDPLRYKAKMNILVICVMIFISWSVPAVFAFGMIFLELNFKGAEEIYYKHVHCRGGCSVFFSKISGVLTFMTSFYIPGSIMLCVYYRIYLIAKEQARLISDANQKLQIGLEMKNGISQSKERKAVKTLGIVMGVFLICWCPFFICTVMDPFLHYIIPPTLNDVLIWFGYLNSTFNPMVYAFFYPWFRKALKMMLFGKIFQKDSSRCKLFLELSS
The experiment in a line: Fluorescence-based cell-based high throughput dose response assay to identify agonists of the human trace amine associated receptor 1 (TAAR1). Type of assay: functional.

The target of assay [8] is T3, Trace amine-associated receptor 1. The experiment in a line: Counterscreen for agonists of the human trace amine associated receptor 1 (hTAAR1): Fluorescence-based cell-based high throughput dose response assay to identify hTAAR1 agonist that also desensitize TAAR1 receptor response. In kind it is functional. For orientation: The purpose of a counterscreen is to sort out artefacts and off-target activity.

Assay [9] can be described thus: cells. In kind it is functional, cell-based. The source holds these as a separate data set.
The target of assay [10] is Paired box protein Pax-8 (Homo sapiens, UniProt Q06710). The experiment in a line: PAX8 transcriptional activity inhibition in RMG-I – RMG-I cells, luciferase, cherry-pick, dose response (AID 687027).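 Further: luciferase reporter driven by Pax8 target thyroperoxidase promoter measured by SteadyGlo luminescence.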 In kind it is functional, cell-based.
Chain of Paired box protein Pax-8 (Q06710 whole entry): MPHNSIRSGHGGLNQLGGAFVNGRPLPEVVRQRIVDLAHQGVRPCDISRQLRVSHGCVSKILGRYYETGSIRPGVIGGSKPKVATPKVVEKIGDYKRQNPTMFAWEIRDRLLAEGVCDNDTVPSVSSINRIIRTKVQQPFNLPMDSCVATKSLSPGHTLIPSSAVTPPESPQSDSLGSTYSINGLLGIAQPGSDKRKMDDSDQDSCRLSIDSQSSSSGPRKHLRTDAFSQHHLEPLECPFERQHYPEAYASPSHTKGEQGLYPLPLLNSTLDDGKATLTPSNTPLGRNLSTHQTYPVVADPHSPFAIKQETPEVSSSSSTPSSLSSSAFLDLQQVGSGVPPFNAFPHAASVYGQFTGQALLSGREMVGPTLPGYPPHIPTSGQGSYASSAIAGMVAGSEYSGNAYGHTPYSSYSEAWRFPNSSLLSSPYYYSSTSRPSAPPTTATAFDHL
Assay [11] in a line: general cell-killing toxicity readout – plate reader, dry powder samples, cytotoxicity control for PAX8 inhibitor project, dose response (AID 743021). In kind it is functional, cell-based.
The target in assay [12] is T4, Replicative DNA helicase DnaB (Mycobacterium tuberculosis, UniProt P9WMR3).
T4 sequence (P9WMR3 whole entry): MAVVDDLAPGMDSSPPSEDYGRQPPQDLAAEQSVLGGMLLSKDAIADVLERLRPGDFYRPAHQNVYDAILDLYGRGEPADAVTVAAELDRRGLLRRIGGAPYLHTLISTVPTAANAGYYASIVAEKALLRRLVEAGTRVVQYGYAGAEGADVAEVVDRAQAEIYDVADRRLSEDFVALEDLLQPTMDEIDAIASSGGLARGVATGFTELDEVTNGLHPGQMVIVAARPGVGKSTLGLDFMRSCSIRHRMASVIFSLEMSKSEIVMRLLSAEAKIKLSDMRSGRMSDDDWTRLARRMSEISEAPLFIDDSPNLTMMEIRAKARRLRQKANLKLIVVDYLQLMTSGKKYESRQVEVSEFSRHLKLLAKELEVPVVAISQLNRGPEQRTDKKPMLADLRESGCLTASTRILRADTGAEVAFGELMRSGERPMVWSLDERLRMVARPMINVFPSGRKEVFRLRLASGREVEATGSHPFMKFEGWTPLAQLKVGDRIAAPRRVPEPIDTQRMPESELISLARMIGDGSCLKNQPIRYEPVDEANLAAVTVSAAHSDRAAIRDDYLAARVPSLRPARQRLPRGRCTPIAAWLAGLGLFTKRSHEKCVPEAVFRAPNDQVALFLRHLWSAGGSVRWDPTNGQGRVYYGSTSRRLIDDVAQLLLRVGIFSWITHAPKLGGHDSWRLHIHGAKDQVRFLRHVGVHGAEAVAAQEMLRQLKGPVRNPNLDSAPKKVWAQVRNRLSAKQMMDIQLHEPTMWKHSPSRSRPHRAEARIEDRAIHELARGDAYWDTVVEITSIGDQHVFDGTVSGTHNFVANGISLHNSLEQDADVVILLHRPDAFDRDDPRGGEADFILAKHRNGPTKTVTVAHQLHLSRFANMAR
The experiment in a line: DnaB intein splicing inhibitors, dose response, biochemical, cell-free fluorescence (AID 449749). In kind it is functional.

Assay [13] addresses T5, Protein RecA (Mycobacterium tuberculosis, UniProt P9WHJ3).
T5 sequence (P9WHJ3 whole entry): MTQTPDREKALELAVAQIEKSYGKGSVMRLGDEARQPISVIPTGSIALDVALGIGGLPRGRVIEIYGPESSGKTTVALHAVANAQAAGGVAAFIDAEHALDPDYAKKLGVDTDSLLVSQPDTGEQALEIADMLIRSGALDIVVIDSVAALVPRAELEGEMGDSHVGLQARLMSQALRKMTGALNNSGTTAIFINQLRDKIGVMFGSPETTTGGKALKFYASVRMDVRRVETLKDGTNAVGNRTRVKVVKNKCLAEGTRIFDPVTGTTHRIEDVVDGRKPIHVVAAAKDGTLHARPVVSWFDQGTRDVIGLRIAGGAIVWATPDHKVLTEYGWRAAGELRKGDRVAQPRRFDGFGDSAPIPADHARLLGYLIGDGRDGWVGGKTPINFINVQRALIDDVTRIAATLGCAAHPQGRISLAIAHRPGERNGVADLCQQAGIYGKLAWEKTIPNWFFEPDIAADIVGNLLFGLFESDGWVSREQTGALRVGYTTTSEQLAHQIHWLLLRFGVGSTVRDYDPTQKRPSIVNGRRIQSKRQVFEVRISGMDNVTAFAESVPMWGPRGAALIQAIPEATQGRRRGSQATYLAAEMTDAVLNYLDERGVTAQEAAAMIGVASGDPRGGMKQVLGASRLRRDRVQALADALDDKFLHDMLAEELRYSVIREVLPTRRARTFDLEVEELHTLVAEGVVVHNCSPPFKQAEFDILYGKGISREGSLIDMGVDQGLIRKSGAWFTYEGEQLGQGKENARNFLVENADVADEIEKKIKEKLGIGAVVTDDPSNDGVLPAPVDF
The experiment in a line: Fluorescence Cell-Free Homogeneous Dose Retest to Identify Inhibitors of RecA-Intein Splicing Activity. [Related pubchem assays (depositor defined):AID2097, AID2223, AID489010, AID492950]. In kind it is functional.

Assay [14] concerns the target Genome polyprotein (dengue virus type 2, UniProt P29990). Nature of the assay: flavivirus cap methylation enzyme inhibition – biochemical, confirmation dose response, primary screen (AID 588689). Type of assay: functional.
Assay [15] deals with T6, Sentrin-specific protease 8 (Homo sapiens, UniProt Q96LD8).
T6 sequence (Q96LD8 whole entry): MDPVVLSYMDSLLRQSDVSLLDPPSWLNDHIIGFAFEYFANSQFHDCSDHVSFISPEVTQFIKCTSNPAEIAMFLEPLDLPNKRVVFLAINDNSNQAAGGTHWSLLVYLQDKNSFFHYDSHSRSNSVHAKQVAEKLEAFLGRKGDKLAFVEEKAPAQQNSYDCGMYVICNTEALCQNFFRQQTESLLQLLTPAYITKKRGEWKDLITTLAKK
Type of assay: functional.

The target in assay [16] is T6, Sentrin-specific protease 8. In kind it is functional. This is another data set of the same source.
The target of assay [17] is Cytochrome P450 2D6 (Homo sapiens, UniProt P10635).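 Further: CYP2D6 member of a cytochrome P450 panel assay.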
Chain of Cytochrome P450 2D6 (P10635 whole entry): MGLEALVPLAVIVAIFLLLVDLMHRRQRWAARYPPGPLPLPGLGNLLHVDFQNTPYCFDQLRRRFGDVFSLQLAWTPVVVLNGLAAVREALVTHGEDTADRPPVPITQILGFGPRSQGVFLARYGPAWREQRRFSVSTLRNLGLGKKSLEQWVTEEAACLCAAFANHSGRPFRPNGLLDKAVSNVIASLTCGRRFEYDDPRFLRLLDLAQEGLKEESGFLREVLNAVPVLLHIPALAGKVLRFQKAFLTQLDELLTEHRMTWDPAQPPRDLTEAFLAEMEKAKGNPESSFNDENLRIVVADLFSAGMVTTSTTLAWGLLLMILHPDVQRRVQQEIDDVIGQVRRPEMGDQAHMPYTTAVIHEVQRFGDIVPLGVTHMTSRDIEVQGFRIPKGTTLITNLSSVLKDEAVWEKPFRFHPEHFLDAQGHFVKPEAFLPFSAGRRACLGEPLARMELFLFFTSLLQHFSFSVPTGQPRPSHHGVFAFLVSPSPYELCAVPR
For assay [18], the target named is T7, Cytochrome P450 1A2 (Homo sapiens, UniProt P05177).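 Further: PubChem cytochrome P450 panel assay, CYP1A2 panel member.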
T7 sequence (P05177 whole entry): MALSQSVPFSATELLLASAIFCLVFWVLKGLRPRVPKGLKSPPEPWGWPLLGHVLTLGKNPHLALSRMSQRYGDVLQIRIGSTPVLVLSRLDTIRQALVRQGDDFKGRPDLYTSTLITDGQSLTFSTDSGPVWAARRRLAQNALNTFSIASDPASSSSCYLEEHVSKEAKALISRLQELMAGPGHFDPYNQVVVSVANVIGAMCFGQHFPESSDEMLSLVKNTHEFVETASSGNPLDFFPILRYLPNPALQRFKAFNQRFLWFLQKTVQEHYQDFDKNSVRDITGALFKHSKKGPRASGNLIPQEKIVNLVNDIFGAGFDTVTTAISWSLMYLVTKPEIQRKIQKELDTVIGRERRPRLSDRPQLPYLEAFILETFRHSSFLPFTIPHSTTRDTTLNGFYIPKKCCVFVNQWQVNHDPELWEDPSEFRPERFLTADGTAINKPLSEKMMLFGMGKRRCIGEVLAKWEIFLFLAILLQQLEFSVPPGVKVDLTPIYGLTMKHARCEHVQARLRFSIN

Chain of Nonstructural protein 1 (Q194T2 whole entry): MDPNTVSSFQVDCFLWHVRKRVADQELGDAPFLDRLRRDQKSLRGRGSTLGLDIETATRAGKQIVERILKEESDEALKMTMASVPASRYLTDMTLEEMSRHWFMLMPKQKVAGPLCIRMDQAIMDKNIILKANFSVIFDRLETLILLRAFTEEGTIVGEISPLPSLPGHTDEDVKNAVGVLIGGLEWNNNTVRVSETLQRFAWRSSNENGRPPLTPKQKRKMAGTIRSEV
Chain of Genome polyprotein (P29990 2492-3391 limits assumed): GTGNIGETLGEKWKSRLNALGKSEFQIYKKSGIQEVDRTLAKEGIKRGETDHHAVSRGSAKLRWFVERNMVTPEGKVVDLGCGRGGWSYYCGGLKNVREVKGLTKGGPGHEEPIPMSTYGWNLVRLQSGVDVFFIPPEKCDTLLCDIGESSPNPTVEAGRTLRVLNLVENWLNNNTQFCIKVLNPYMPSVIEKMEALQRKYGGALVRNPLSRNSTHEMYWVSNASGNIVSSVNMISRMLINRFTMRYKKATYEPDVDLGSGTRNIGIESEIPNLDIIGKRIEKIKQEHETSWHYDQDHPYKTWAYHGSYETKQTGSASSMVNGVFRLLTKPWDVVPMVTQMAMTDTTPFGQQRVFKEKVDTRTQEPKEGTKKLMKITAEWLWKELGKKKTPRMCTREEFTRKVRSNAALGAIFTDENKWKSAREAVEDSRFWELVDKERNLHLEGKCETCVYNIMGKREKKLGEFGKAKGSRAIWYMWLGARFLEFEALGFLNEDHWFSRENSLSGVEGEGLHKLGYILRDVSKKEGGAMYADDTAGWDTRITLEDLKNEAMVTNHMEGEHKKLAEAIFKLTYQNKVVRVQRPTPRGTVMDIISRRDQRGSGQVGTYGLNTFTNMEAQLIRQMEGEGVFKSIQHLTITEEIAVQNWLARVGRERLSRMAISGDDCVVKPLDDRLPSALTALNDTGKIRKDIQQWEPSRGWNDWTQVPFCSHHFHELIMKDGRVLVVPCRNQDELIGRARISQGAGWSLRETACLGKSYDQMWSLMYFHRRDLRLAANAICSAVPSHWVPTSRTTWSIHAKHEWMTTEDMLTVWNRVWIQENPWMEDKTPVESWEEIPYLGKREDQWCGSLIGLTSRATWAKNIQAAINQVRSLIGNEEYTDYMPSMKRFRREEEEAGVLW

`CC1=C(C#N)C(c2ccc3ncccc3c2)C(C#N)=C(C)N1`: in assay [1], the Ki is > 66.7 µM (inactive).
Regarding `COc1ccccc1-n1c(/C=C/c2ccc(O)cc2)nc2ccccc2c1=O`, the CC50 in assay [2] is 100 µM (active). In addition, the IC50 in assay [3] is 106 µM (active).
As for `COc1cc(N/N=C/c2ccccc2O)ncn1`, the values for the IC50 in [4], in [6] and in [8] were 5.73 µM (active), > 29.9 µM (inactive) and 6.63 µM (active), respectively. Moreover, in [5], the AC50 is 3.67 µM (active). The EC50 in assay [7] and in assay [9] was > 29.9 µM (inactive) each time.
As for `O=C(O)/C=C/C(=O)NCCCc1ccccc1`, the IC50 in assay [6] and in assay [8] was > 29.9 µM (inactive) each time. Moreover, the EC50 is 7.06 µM (active) in [7] and > 29.9 µM (inactive) in [9].
Turning to `Oc1ccc(-c2[nH]ncc2-c2ccc(Cl)cc2)c(O)c1`, the CC50 in [2] was 100 µM (active). In assay [3], the IC50 was 90.8 µM (active).
Take `Cc1ccn2c(CNCC3OCCc4ccccc43)c(C(=O)N3CCCCCC3)nc2c1` (centres undefined): the IC50 in assay [6] was > 29.9 µM (inactive); in [8] it was 9.37 µM (active). Besides, the EC50 was 4.98 µM (active) in assay [7] and > 29.9 µM (inactive) in [9].
As to `CCOC(=O)c1c(C)[nH]c(/C=N/c2ccccc2)c1O`, in assay [1], the Ki was > 66.7 µM (inactive).
On to `O=C(Nc1ccc(C(F)(F)F)cc1)N1C[C@@H]2N[C@H](C1)[C@H]2c1ccc(-c2cccc(F)c2)cc1`, for which the figures for the AC50 in assay [10] and in [11] were 13.2 µM (active) and 27.9 µM (active), respectively.
Turning to `Cc1nn(-c2ccc(F)cc2)c(O)c1C(c1cccc(O)c1)c1c(C)[nH]n(-c2ccc(F)cc2)c1=O` (centres undefined), the AC50 in assay [12] was 1.06 µM (active); in [17], 28.2 µM (inconclusive); in assay [18], 25.1 µM (inconclusive). Also, the EC50 in [13] is 0.856 µM (active). The values for the IC50 in assay [14], in assay [15] and in assay [16] were 55.5 µM (active), 14.6 µM (active) and 12.2 µM (active), respectively.
